From ChEMBL document CHEMBL4339249, “Antimicrobial Dolabellanes and Atranones from a Marine-Derived Strain of the Toxigenic Fungus Stachybotrys chartarum” (2019)
Active and inactive are the calls of the source. The rule behind the calls is not given here.

Assays:
[1] = test system: Candida albicans; assay: Antimicrobial activity against Candida albicans ATCC 10231 assessed as inhibition of microbial growth incubated for 16 hrs by broth microdilution method; format: functional; details: ATCC 10231, 16 h
[2] = test system: Acinetobacter baumannii; assay: Antimicrobial activity against Acinetobacter baumannii ATCC 19606 assessed as inhibition of microbial growth incubated for 16 hrs by broth microdilution method; format: functional; details: ATCC 19606, 16 h
[3] = test system: Staphylococcus aureus; assay: Antimicrobial activity against methicillin-resistant Staphylococcus aureus ATCC 43300 assessed as inhibition of microbial growth incubated for 16 hrs by broth microdilution method; format: functional; details: ATCC 43300, 16 h
[4] = test system: Candida albicans; assay: Induction of morphological changes in Candida albicans ATCC 10231 assessed as induction of wrinkled cells at 8 ug/ml incubated for 12 hrs by transmission electron microscopy; format: functional, organism-based
[5] = test system: Enterococcus faecalis; assay: Antimicrobial activity against Enterococcus faecalis ATCC 29212 assessed as inhibition of microbial growth incubated for 16 hrs by broth microdilution method; format: functional; details: ATCC 29212, 16 h
[6] = test system: Escherichia coli; assay: Antimicrobial activity against ESBL-producing Escherichia coli ATCC 35218 assessed as inhibition of microbial growth incubated for 16 hrs by broth microdilution method; format: functional; details: ATCC 35218, 16 h
[7] = test system: Candida albicans; assay: Induction of morphological changes in Candida albicans ATCC 10231 assessed as induction of deformed cells at 8 ug/ml incubated for 12 hrs by transmission electron microscopy; format: functional, organism-based
[8] = test system: Candida albicans; assay: Induction of morphological changes in Candida albicans ATCC 10231 assessed as induction of cell contents leakage at 16 ug/ml incubated for 12 hrs by transmission electron microscopy; format: functional, organism-based
[9] = test system: Candida albicans; assay: Induction of morphological changes in Candida albicans ATCC 10231 assessed as induction of irregular cell shape at 8 ug/ml incubated for 12 hrs by transmission electron microscopy; format: functional, organism-based
[10] = test system: Candida albicans; assay: Induction of morphological changes in Candida albicans ATCC 10231 assessed as induction of cell wall thinning at 8 ug/ml incubated for 12 hrs by transmission electron microscopy; format: functional, organism-based
[11] = test system: Candida albicans; assay: Induction of morphological changes in Candida albicans ATCC 10231 assessed as induction of cell wall deformation at 16 ug/ml incubated for 12 hrs by transmission electron microscopy; format: functional, organism-based
[12] = test system: Klebsiella pneumoniae; assay: Antimicrobial activity against Klebsiella pneumoniae ATCC 700603 assessed as inhibition of microbial growth incubated for 16 hrs by broth microdilution method; format: functional; details: Klebsiella pneumoniae, 700603, 16 h
[13] = test system: Pseudomonas aeruginosa; assay: Antimicrobial activity against Pseudomonas aeruginosa ATCC 15442 assessed as inhibition of microbial growth incubated for 16 hrs by broth microdilution method; format: functional; details: ATCC 15442, 16 h
[14] = test system: Candida albicans; assay: Induction of morphological changes in Candida albicans ATCC 10231 assessed as induction of vacuoles formation in cytoplasm at 16 ug/ml incubated for 12 hrs by transmission electron microscopy; format: functional, organism-based
[15] = test system: Candida albicans; assay: Induction of morphological changes in Candida albicans ATCC 10231 assessed as induction of cell membrane deformation at 16 ug/ml incubated for 12 hrs by transmission electron microscopy; format: functional, organism-based
[16] = test system: Candida albicans; assay: Induction of morphological changes in Candida albicans ATCC 10231 assessed as induction of agglutination in cytoplasm at 8 ug/ml incubated for 12 hrs by transmission electron microscopy; format: functional, organism-based

SMILES	MIC [1]	MIC [2]	MIC [3]	Activity [4]	MIC [5]	MIC [6]	Activity [7]	Activity [8]	Activity [9]	Activity [10]	Activity [11]	MIC [12]	MIC [13]	Activity [14]	Activity [15]	Activity [16]
OC(Cn1cncn1)(Cn1cncn1)c1ccc(F)cc1F [FLUCONAZOLE]	1 µg/mL															
CC(=O)C[C@H]1/C=C(\C)[C@@H](O)C[C@H]2C(C(C)C)=CC(=O)O[C@]2(C)CC[C@@H](C)C1=O	8 µg/mL	≥ 100 µg/mL	32 µg/mL	Active	16 µg/mL	≥ 100 µg/mL	Active	Active	Active	Active	Active	≥ 100 µg/mL	≥ 100 µg/mL	Active	Active	Active
CN[C@H](CC(C)C)C(=O)N[C@H]1C(=O)N[C@@H](CC(N)=O)C(=O)N[C@H]2C(=O)N[C@H]3C(=O)N[C@H](C(=O)N[C@H](C(=O)O)c4cc(O)cc(O)c4-c4cc3ccc4O)[C@H](O)c3ccc(c(Cl)c3)Oc3cc2cc(c3O[C@@H]2O[C@H](CO)[C@@H](O)[C@H](O)[C@H]2O[C@H]2C[C@](C)(N)[C@H](O)[C@H](C)O2)Oc2ccc(cc2Cl)[C@H]1O [VANCOMYCIN]					0.5 µg/mL											
C/C1=C\[C@H](O)C[C@]2(C)O[C@H]2C[C@@]2(C)OC(=O)C=C(C(C)C)[C@@H]2CC1	≥ 100 µg/mL	16 µg/mL	≥ 100 µg/mL		≥ 32 µg/mL	≥ 100 µg/mL						≥ 100 µg/mL	≥ 100 µg/mL			
CO/N=C(\C(=O)N[C@@H]1C(=O)N2C(C(=O)O)=C(CSc3nc(=O)c(O)nn3C)CS[C@H]12)c1csc(N)n1 [CEFTRIAXONE]		8 µg/mL				8 µg/mL						2 µg/mL	2 µg/mL			
COC(=O)[C@H]1[C@H](C)O[C@@]2(O)[C@H](C)CC[C@@]3(C)OC(=O)C=C(C(C)C)[C@@H]3C[C@H](O)/C(C)=C/[C@H]12	≥ 100 µg/mL	≥ 100 µg/mL	≥ 100 µg/mL		≥ 100 µg/mL	≥ 100 µg/mL						≥ 100 µg/mL	≥ 100 µg/mL			
C/C1=C\[C@H](O)C[C@]2(C)O[C@H]2C[C@@]2(C)C(=O)C=C(C(C)C)[C@@H]2CC1	≥ 100 µg/mL	≥ 100 µg/mL	≥ 100 µg/mL		≥ 100 µg/mL	≥ 100 µg/mL						≥ 100 µg/mL	≥ 100 µg/mL			
C/C1=C\[C@H](O)[C@H](O)C/C(C)=C/[C@@]2(C)OC(=O)C=C(C(C)C)[C@@H]2CC1	≥ 100 µg/mL	≥ 100 µg/mL	≥ 100 µg/mL		≥ 100 µg/mL	≥ 100 µg/mL						≥ 100 µg/mL	≥ 100 µg/mL			
NCC[C@H](O)C(=O)N[C@@H]1C[C@H](N)[C@@H](O[C@H]2O[C@H](CN)[C@@H](O)[C@H](O)[C@H]2O)[C@H](O)[C@H]1O[C@H]1O[C@H](CO)[C@@H](O)[C@H](N)[C@H]1O [AMIKACIN]		2 µg/mL				4 µg/mL						8 µg/mL	2 µg/mL			
C/C1=C\[C@H]2/C(=C(/C)CC[C@@]3(CO)C(=O)C=C(C(C)C)[C@@H]3CC1)OC(=O)[C@@H]2[C@H](C)O	≥ 100 µg/mL	≥ 100 µg/mL	≥ 100 µg/mL		≥ 100 µg/mL	≥ 100 µg/mL						≥ 100 µg/mL	≥ 100 µg/mL			
